Results taken from patent US20060173062A1, “Use of selective cyclooxygenase-2 inhibitors for the treatment of endometriosis” (priority 2003, published 2006).

System: rat uterine horn implants in the peritoneal cavity
Assay: Rat model for endometriosis
Assay type: in vivo
Conditions: 14 days; for implant volume: FIG. 1; for implant weight: FIG. 2
Source text: FIG. 1 compares the mean volume of rat uterine horn implants in the peritoneal cavity of rats before and after 14 days of administration of a cyclooxygenase-2-selective inhibitor.
FIG. 2 compares the in mean weight of rat uterine horn implants in the peritoneal cavity of rats before and after 14 days of administration of a cyclooxygenase-2-selective inhibitor.
Rat Model for Endometriosis:
In this model 5×5 mm sections of rat uterine hom are implanted in the peritoneal cavity (extra uterine endometrial wall) of subject rats. Four weeks after transplantation of the endometrial tissues, rats were anesthetized with Telazol (20 mg/kg, IP, Fort Dodge Animal Health, Fort Dodge, Iowa), Oxymorphone (0.2 mg/kg SC, Henry Schein, Melville, N.Y.) and immobilized on a standard rat operating board. The surgical site was shaved and cleaned using three cycles of Betadine/alcohol or DuraPrep® (3M, St. Paul, Minn.). Using aseptic technique, an incision was made through the skin, SC and muscle layers. The growth of the explant was evaluated for size and acceptance/rejection. On gross examination, the endometrial implants appeared as uni-loculated (occasional as multilobulated) cystic masses filled with clear/light yellowish or dark brown serous fluid. In some instances, at the time of 2nd laparotomy, partial or complete adhesions from connective tissue, mesentry, and bowel to the implants were noted. In those instances, a careful separation was executed, avoiding the rupture the implants. While having a clear vision of the implants, the length, width and height of the implant was measured using a sterile Jameson Caliper (BRI, Rockville, Md.), and documented. The abdominal incisions were closed by using 4-0 chromic gut (Ethicon). The rats were observed until fully ambulatory.
More animals than required for the study were used for surgery. After the 2nd laparotomy, animals were assigned to control or treated groups in an attempt to equalize the endometrium implant size between groups. The rats bearing implant with clear/light yellowish fluid were used in study group selection. The rats bearing implant with dark brown fluid considered as hemorrhagic solid mass were excluded from the study.
Treatment with selected drug therapy started after 1 day of post-surgical recovery. Rats were given the test compound, the cyclooxygenase-2 selective inhibitor Compound A, or vehicle alone or Raloxifene (10 mpk) or Lupron Depot (1 mpk) for a period of 14 days. At the end of the 14-day treatment period, the animals were euthanized at pro-estrus cycle which was confirmed by vaginal smear. Necropsy involved opening the abdomen and evaluating the implant size. The implant and right uterine horn were excised for wet weighing.
Compound A has the following structure: [drawing 1] […]

For `CS(=O)(=O)c1ccc(C2COC(=O)C2c2ccc(F)c(F)c2)cc1` (stereo not shown) [Compound A], the implant volume (1 mpk, BID by oral gavage) was “not significant at the 95 percent confidence level”, the implant weight (1 mpk, BID by oral gavage) was “not significant at the 95 percent confidence level” and the implant volume (10 mpk, BD by oral gavage) was “reduce implant volume and weight to a significant degree at the 95 percent confidence level”. For the same compound, the implant weight (10 mpk, BD by oral gavage) was “reduce implant volume and weight to a significant degree at the 95 percent confidence level”.
